Assay results: the METLIN SMRT retention time set (Domingo-Almenara et al. 2019)

Test: gradient 5% acetonitrile 3 min, to 50% in 2 min, to 85% in 15 min, held 3 min, 100 µL/min
Settings: column: Zorbax Extend-C18 2.1 x 50 mm; eluents: water / acetonitrile, 0.1% formic acid
Summary of the method: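 Data were gathered over 3 months by HPLC coupled to a quadrupole time-of-flight mass spectrometer, operated in positive and negative ionization mode. Mixtures of ~100 pure standards ran on a Zorbax Extend-C18 column (2.1 × 50 mm, 1.8 μm) at 100 μL/min, with water and acetonitrile each containing 0.1% formic acid and dead and dwell volumes of 40 μL and 900 μL. Retention time was read from adduct peaks picked by computer and checked manually.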

| Compound | RP-LC retention time |
| --- | --- |
| CCN1CCN(C(=O)C(C)C2CCN(S(=O)(=O)c3ccc(Cl)s3)CC2)CC1 (stereo not given) | 666 s |
| O=C([C@@H]1C[C@H](Oc2ccccc2)CN1C(=O)CCCc1c[nH]c2ccccc12)N1CCCC1 | 865 s |
| CCOC(=O)c1[nH]c(C)c(C(=O)N2CCC(CC(=O)N3CCN(CC)CC3)CC2)c1C | 579 s |
| CCN(CC)CCNC(=O)c1c(C)[nH]c(/C=C2\C(=O)Nc3ccc(F)cc32)c1C | 700 s |
| O=C(CSCCSCC(=O)Nc1ccccc1)Nc1ccccc1 | 775 s |
| O=C(Cn1ccc2ccc(N3CCOCC3)nc21)NCc1ccc2c(c1)OCO2 | 791 s |
| COc1cccc(OC)c1OCCNCC1CSc2ccccc2O1 (stereo not given) | 815 s |
| O=C1NC2CCCCC2C2=NC(CN3CCN(c4ccccc4)CC3)CN12 (stereo not given) | 655 s |
| CCOCC(=O)N1CCCC(c2nc(CNC(=O)C3CCC3)cs2)C1 (stereo not given) | 645 s |
| N#CC1=C2CCCCC2(O)NC1=O (stereo not given) | 655 s |
| CCCN(CC1CCOC1)C(=O)NCc1ccc(C)cc1 (stereo not given) | 796 s |
| CCCc1nc(-c2c(C)cc(C)nc2NC(=O)c2cc(F)cc(F)c2)no1 | 938 s |
| COc1ccc(C(=O)N2CCN(C(=O)c3ccco3)CC2)nn1 | 576 s |
| CN1C(=O)c2ccccc2C(C(=O)N2CCN(c3ccccn3)CC2)C1c1cccs1 (stereo not given) | 608 s |
| CCNc1cc(N2CCC(CCC(=O)NCCc3cccs3)CC2)ncn1 | 570 s |
| Cc1sc(-c2cc(C(F)(F)F)[nH]n2)cc1S(=O)(=O)N1CCCCCC1 | 1110 s |
| CCOC(=O)CCC(=O)Nc1nnc(-c2sc(C)nc2C)o1 | 621 s |
| O=C(NC1CC1)C1CCN(S(=O)(=O)c2cc(C(=O)N3CCCCCC3)cs2)CC1 | 713 s |
| Cc1cccc(S(=O)(=O)N2CCC(C)(C(=O)NCc3ccc(F)cc3)CC2)c1 | 936 s |
| CNCCC(Oc1ccccc1OC)c1ccccc1 (stereo not given) | 734 s |
| O=c1[nH]c2sc3c(c2c(=O)n1-c1ccccc1)CCCC3 | 772 s |

| Compound | RP-LC retention time |
| --- | --- |
| CCN1CCN(CCNC(=O)C2CCCN(S(=O)(=O)N(C)c3ccc(F)cc3)C2)CC1 (stereo not given) | 551 s |
| CN(CCCNC(=O)CCCn1c(=O)c2cccn2c2ccc(F)cc21)Cc1ccccc1 | 673 s |
| C=CCn1c(=O)c(=O)n(Cc2ccc(C(=O)N3CCN(c4ccccn4)CC3)cc2)c2ccccc21 | 626 s |
| COc1cc(NS(=O)(=O)c2ccc(N)cc2)nc(OC)n1 | 680 s |
| CCC(=O)N1CCc2c(C(=O)N3CCOCC3)cccc21 | 630 s |
| Nc1ccc(C(=O)Oc2ccc([N+](=O)[O-])cc2)cc1 | 926 s |
| CC(C)c1noc(C2CCCN(C(=O)NC3CCCCC3)CCC(=O)NCC2)n1 (stereo not given) | 752 s |
| NCCSSCc1ccccc1CSSCCN | 567 s |
| CN(CCNC(=O)CCCn1c2ccccc2c2cnn(C)c(=O)c21)Cc1ccccc1 | 652 s |
| CCCCNC(=O)C1c2cc(OC)c(OC)cc2C(=O)N(C)C1c1ccc(OC)c(OC)c1 (stereo not given) | 710 s |
| CCC(C)NC(=O)C1CCN(c2cncnc2N2CCCC2)CC1 (stereo not given) | 608 s |
| CN(C)[C@@H]1CN(Cc2cccc(OC(F)(F)F)c2)CC[C@@H]1CO | 585 s |
| CCOC(=O)C1CCN(C(=O)c2ccc3c(c2)N(CC(=O)N2CCCC2)C(=O)CO3)CC1 | 678 s |
| CN(C)C(=O)OC1=C(c2ccccc2)Sc2ccccc2-n2cccc21 | 1250 s |
| COc1ccccc1NC(=O)C1CCN(S(=O)(=O)c2cc(C(=O)N(C)C)cs2)CC1 | 789 s |
| O=C1CCCc2cc(S(=O)(=O)NCCN3CCN(c4ccccc4F)CC3)ccc2N1 | 621 s |
| COc1ccc(NS(=O)(=O)c2cccc(-c3nc(-c4ccccc4)no3)c2)cc1 | 1100 s |
| COc1ccc(C2CC(=O)N(c3ccc(F)c(F)c3)C(=O)C2)cc1OC | 852 s |
| CCNC(=O)c1[nH]c2ccccc2c1N1CCCC1=O | 657 s |
| CCC(CO)NCc1ccc(-c2ccc(F)cc2)o1 (stereo not given) | 637 s |

Other lines, results leading:

| RP-LC retention time | Compound |
| --- | --- |
| 783 s | O=C(Nc1nnc(C2CC(=O)N(c3ccc(F)cc3)C2)o1)c1ccc(Br)cc1 (stereo not given) |
| 671 s | COc1cccc(S(=O)(=O)N2CCN(c3cnn4c(C)nnc4c3)CC2)c1 |
| 903 s | COc1ccc(S(=O)(=O)N2CCCN(c3ccc(=O)n(-c4ccc(C)c(C)c4)n3)CC2)cc1 |
| 740 s | O=C(c1ccc2c(c1)OCO2)N1CCC(c2nc(C3CC3)no2)C1 (stereo not given) |
| 849 s | CCc1ccc(OCC(=O)Nc2nnc(C3CC(=O)N(c4ccc(F)cc4)C3)o2)cc1 (stereo not given) |
| 707 s | Cc1nnc(-c2ccc3ccn(CC(=O)Nc4nccs4)c3c2)o1 |
| 573 s | Cc1ccc(Cl)cc1NC(=O)N1CCC(c2nc3ccncc3n2C(C)C)C1 (stereo not given) |
| 711 s | Cc1cc2c(N3CCCC(C(=O)NCc4ccc(N5CCOCC5)cc4)C3)nccc2s1 (stereo not given) |
| 652 s | O=C(c1ccco1)N1CCC[C@H]1c1nc(-c2ccccc2)n[nH]1 |
| 565 s | CN(C)c1cc(C(=O)NC2CC2)c2ccccc2n1 |
| 667 s | Cc1nn(-c2ccc(N3CCCCC3)nn2)c(C)c1CCC(=O)NCc1ccco1 |
| 775 s | O=C(C1=CN(c2ccc(F)c(F)c2)c2cc(Cl)ccc2S1(=O)=O)N1CCOCC1 |
| 909 s | Cc1ccc(C)c(-c2cc3c4nn(CC(=O)NC5CCCC5)c(=O)n4ccn3n2)c1 |
| 1450 s | Cc1sc2ncnc(N3CCCC(C)C3)c2c1C(=O)Nc1cc(F)ccc1Cl (stereo not given) |
| 586 s | CSc1ccccc1CN1CCC(CNC(=O)C(=O)Nc2ccc3c(c2)OCO3)CC1 |
| 1150 s | Cc1ccc(-c2nc(-c3cccc(-c4ccn[nH]4)c3)no2)cc1C |
| 570 s | COc1cc2ncc(C(=O)c3ccc(C)c(C)c3)c(N3CCN(C)CC3)c2cc1OC |
| 604 s | O=C(N[C@@H]1CN(c2ccncn2)C[C@H]1CO)c1ccc2ccccc2n1 |
| 601 s | O=C(CNC(=O)c1ccccn1)Nc1nc2ccccc2[nH]1 |
| 828 s | CCOc1ccccc1CNC(=O)C1CCCN(c2ccc(=O)n(-c3ccc(C)c(Cl)c3)n2)C1 (stereo not given) |
| 657 s | COc1ccc(C(=O)N2CCC3(C2)C(=O)Nc2ccccc23)cc1OC (stereo not given) |
| 826 s | COc1cccc(Sc2ccc(N3CCCC(C(=O)NCc4ccc5c(c4)OCO5)C3)nn2)c1 (stereo not given) |
| 554 s | O=C(Nc1ccccc1F)N1CCC2(CCC2N2CCOCC2)CC1 (stereo not given) |
| 716 s | Cc1cc(C(=O)Nc2ccc(-c3ccn[nH]3)cc2)c(C)o1 |
| 834 s | O=C(COc1ccccc1F)Nc1ccc2c(c1)N(C(=O)c1ccco1)CCC2 |

| RP-LC retention time | Compound |
| --- | --- |
| 593 s | COc1cc(Cl)ccc1C(=O)N1CCc2nc[nH]c2C1 |
| 843 s | COc1ccccc1CNC(=O)C1=C2CCCN2c2ccccc2S1(=O)=O |
| 665 s | Cc1nc(-c2cc3cccc(C)c3nc2N2CCN(C)CC2)no1 |
| 976 s | Cc1ccc(NC(=O)Cn2nc3cc(-c4ccccc4)nc(C)n3c2=O)cc1F |
| 798 s | CC1CCCN(S(=O)(=O)c2ccc(-n3cnc(C(=O)NC4CC4)c3)nc2)C1 (stereo not given) |
| 968 s | COC(=O)c1c(-c2ccc(Cl)cc2)noc1N1CCOCC1 |
| 701 s | CCOC(=O)c1ccccc1NC(=O)Cn1cnc2nc(N3CCC(C(=O)NC)CC3)sc2c1=O |
| 799 s | O=C(Nc1nccs1)C1CCN(C(=O)C2c3ccccc3Oc3ccccc32)CC1 |
| 578 s | O=c1c(NCc2ccccn2)nc2ccncc2n1Cc1ccccc1 |
| 903 s | Cc1ccc2c(c1)cc(S(=O)(=O)c1ccccc1)c(=O)n2CC(=O)NC1CCCC1 |
| 660 s | Cc1cccc(NC(=O)N2CCc3nc(-c4ccc(Cl)cc4)ncc3C2)c1C |
| 1160 s | Cc1ccc(S(=O)(=O)N2CCC(c3noc(-c4cccc(F)c4)n3)CC2)cc1 |
| 805 s | O=C(c1cccs1)N1CCCC(c2nnc(-c3ccccc3)o2)C1 (stereo not given) |
| 652 s | CCn1c(CNC(=O)C2CCC2)nc2c1CN(C(=O)Cc1ccc(Cl)cc1)CC2 |
| 917 s | CCOc1ccccc1NC(=O)Cn1nc(C(=O)N2CCCC2)c2ccccc21 |
| 996 s | CCOc1ccccc1NC(=O)C1CCN(S(=O)(=O)c2cc(-c3noc(C)n3)cs2)CC1 |
| 1080 s | Cc1cc(C(=O)Nc2nc(-c3ccccc3)cs2)ccc1[N+](=O)[O-] |
| 775 s | Cc1ccccc1S(=O)(=O)N1CCN(c2nc3ccncc3n(CC(C)C)c2=O)CC1 |
| 572 s | Cc1cnc(-c2ccccc2)n1C1CN(Cc2ccc(F)cc2F)C1 |
| 947 s | Cc1ccc(N2C(=O)Cn3cccc3C2C(=O)NC2CCCCC2C)cc1 (stereo not given) |
| 686 s | CC1=C(c2cccc(Br)c2)S(=O)(=O)N=C1N1CCN(c2ccccn2)CC1 |
| 799 s | Cc1ccccc1CNC(=O)Cn1nc(C(=O)N2CCCC2)c2ccccc21 |
| 690 s | N#Cc1cccc(-c2cn3c(n2)N(C(=O)C2CCC2)CCC3)c1 |
| 1100 s | Cc1ccc(Nc2c(-c3cccc([N+](=O)[O-])c3)nc3ccc(Cl)cn23)cc1 |
